# Data as given in the NIST ThermoML archive (doi:10.1021/je049816w).
# ± gives the expanded uncertainty stated by the source.
# Settings: Liquid, Ebulliometric method (Recirculating still)
compound,measurement,setting,value
"CCOC(C)OCC [1,1-diethoxyethane]",vapor or sublimation pressure,328.35 K,19 ± 0.2 kPa
same,vapor or sublimation pressure,341.62 K,32.1 ± 0.2 kPa
same,vapor or sublimation pressure,345.13 K,36.7 ± 0.2 kPa
same,vapor or sublimation pressure,348.33 K,41.1 ± 0.2 kPa
same,vapor or sublimation pressure,353.38 K,49.2 ± 0.2 kPa
same,vapor or sublimation pressure,357.95 K,57.9 ± 0.3 kPa
same,vapor or sublimation pressure,361.96 K,66.1 ± 0.3 kPa
same,vapor or sublimation pressure,364.68 K,72.3 ± 0.3 kPa
same,vapor or sublimation pressure,366.99 K,77.9 ± 0.3 kPa
same,vapor or sublimation pressure,369.09 K,83.1 ± 0.3 kPa
same,vapor or sublimation pressure,371.7 K,90.1 ± 0.3 kPa
same,vapor or sublimation pressure,373.41 K,94.8 ± 0.3 kPa
same,vapor or sublimation pressure,375.27 K,100 ± 0.3 kPa
